The values below are quoted from earlier work in patent US20090182054A1, “Topical compositions containing solubilized dicarboxylic acids” (priority 2008, published 2009).

For data set [1] the following is noted: water, 25 deg C.
The subject of data set [2] is inflammatory papule lesions and erythema. The note with it: topical application.

As to `O=C(O)CCCCCCCC(=O)O` [azelaic acid, Azelaic acid], the solubility in data set [1] is 0.24 gram per 100 gram of water. Also, the “inflammatory papule lesions and erythema” value in data set [2] is “significantly reduce”.
